In patent US20100189783A1, “RELATING TO ANTI-HIV TABLET FORMULATIONS” (priority 2007, published 2010):

Experiment: particle size (dv10) of darunavir after drying
Type: physicochemical
Settings: 10% (volume %) of particles smaller than value
Experimental: The active ingredient darunavir ethanolate used in the marketed 300 mg tablet formulation has been manufactured by a process which includes a drying process in which the particulate darunavir is dried on trays, i.e. a static process. However, in order to provide a higher manufacturing throughput and improved safety for the operators, it is desirable to replace the static drying with a tumble drying operation involving drying in a revolving container. Such a change in the drying operation however has a significant effect on the physical characteristics of the particles of the darunavir. In this case the tumble drying of the particles results in a reduction in the dv10 value (dv10 means that 10% (volume %) of the particles has a diameter smaller than the specified value) from approximately 80 microns to approximately 35 microns. […] It will be appreciated that good blend flow and good tablet properties such as weight uniformity and appropriate visual appearance, without any defects, are essential in a large-scale industrial manufacturing process to maximise throughput and ensure consistent and efficient processing of the material.

With `CC(C)CN(C[C@@H](O)[C@H](Cc1ccccc1)NC(=O)O[C@H]1CO[C@H]2OCC[C@H]21)S(=O)(=O)c1ccc(N)cc1` [darunavir, [(1S,2R)-3-[[(4-aminophenyl)sulfonyl](2-methylpropyl)amino]-2-hydroxy-1-(phenylmethyl)propyl]-carbamic acid (3R,3aS,6aR)hexahydrofuro[2,3-b]furan-3-yl ester] the dv10 value (after tumble drying) was “approximately 35 microns” and the dv10 value (static drying on trays) was “approximately 80 microns”.
